Reference: patent US8778963B2, “Hydroxylamine and oxime substituted imidazoquinolines, imidazopyridines, and imidazonaphthyridines” (3M Innovative Properties Company, priority 2003, dated 2014)
Where a name gives a salt, the structure may show the parent alone.

melting point [°C]	SMILES
189 to 192	CCOCc1nc2c(N)nc3ccccc3c2n1CCCC(C)=NOC (as salt: hydrochloride) [Example 35, 5-(4-Amino-2-ethoxymethyl-1H-imidazo[4,5-c]quinolin-1-yl)pentan-2-one O-methyloxime hydrochloride]
184 to 186	CCOCc1nc2c(N)nc3ccccc3c2n1CCCC(C)=NOCc1ccccc1 (as salt: hydrochloride) [Example 36, 5-(4-Amino-2-ethoxymethyl-1H-imidazo[4,5-c]quinolin-1-yl)pentan-2-one O-benzyloxime hydrochloride]
155 to 156	CCCc1nc2c(N)nc3cccnc3c2n1CCCCN(OC)C(C)=O [Example 1, N-[4-(4-Amino-2-propyl-1H-imidazo[4,5-c]-1,5-naphthyridin-1-yl)butyl]-N-methoxyacetamide]
125 to 127	CCCc1nc2c(N)nc3cccnc3c2n1CCCCN(OC)C(=O)c1ccccc1 [Example 2, N-[4-(4-Amino-2-propyl-1H-imidazo[4,5-c][1,5]naphthyridin-1-yl)butyl]-N-methoxybenzamide]
161 to 162	CCCc1nc2c(N)nc3cccnc3c2n1CCCCN(OC)C(=O)NC(C)C [Example 3, N-[4-(4-Amino-2-propyl-1H-imidazo[4,5-c][1,5]naphthyridin-1-yl)butyl]-N′-isopropyl-N-methoxyurea]
132 to 134	CCCCc1nc2c(N)nc3cccnc3c2n1CCC/C(C)=N/OC [Example 4, 5-(4-Amino-2-butyl-1H-imidazo[4,5-c][1,5]naphthyridin-1-yl)-pentan-2-one O-methyloxine]
144 to 145.5	CCCc1nc2c(N)nc(C)c(C)c2n1CCC/C(C)=N/OC [Example 5, 5-(4-Amino-6,7-dimethyl-2-propyl-1H-imidazo[4,5-c]pyridine-1-yl)pentan-2-one O-methyloxime]
138 to 140	CCCc1nc2c(N)nc3ccccc3c2n1CCCCN(OC)C(C)=O [Example 6, N-[4-(4-Amino-2-propyl-1H-imidazo[4,5-c]quinolin-1-yl)butyl]-N-methoxyacetamide]
179 to 181	CCCc1nc2c(N)nc3ccccc3c2n1CCCCN(OC)C(N)=O [Example 7, 1-[4-(4-Amino-2-propyl-1H-imidazo[4,5-c]quinolin-1-yl)butyl]-1-methoxyurea]
178 to 188	CCCc1nc2c(N)nc3ccccc3c2n1CCCCN(OC)S(C)(=O)=O [Example 8, N-[4-(4-Amino-2-propyl-1H-imidazo[4,5-c]quinolin-1-yl)butyl]-N-methoxymethanesulfonamide]
164 to 166	CCCc1nc2c(N)nc3ccccc3c2n1CCCCN(OC)C(=O)Nc1ccccc1 [Example 9]
140 to 142	CCCc1nc2c(N)nc3ccccc3c2n1CCCC(C)N(OC)C(C)=O (stereo not drawn) [Example 10, N-[4-(4-Amino-2-propyl-1H-imidazo[4,5-c]quinolin-1-yl)-1-methylbutyl]-N-methoxy-acetamide]
140 to 142	CCCc1nc2c(N)nc3ccccc3c2n1CCCC(C)N(OC)C(=O)Nc1ccccc1 (stereo not drawn) [Example 11, 1-[4-(4-Amino-2-propyl-1H-imidazo[4,5-c]quinolin-1-yl)-1-methylbutyl]-1-methoxy-3-phenylurea]
193 to 194	CCCc1nc2c(N)nc3ccccc3c2n1CCCC(C)N(OC)C(=O)NCC (stereo not drawn) [Example 12, 1-[4-(4-Amino-2-propyl-1H-imidazo[4,5-c]quinolin-1-yl)-1-methylbutyl]-3-ethyl-1-methoxyurea]
146 to 148	CCOCc1nc2c(N)nc3ccccc3c2n1CCCC(C)N(OC)S(C)(=O)=O (stereo not drawn) [Example 13, N-[4-(4-Amino-2-ethoxymethyl-1H-imidazo[4,5-c]quinolin-1-yl)-1-methylbutyl]-N-methoxymethanesulfonamide]
157 to 158.5	CCCc1nc2c(N)nc(C)c(C)c2n1CCCCN(O)C(=O)OC(C)(C)C [Example 14, N-[4-(4-Amino-6,7-dimethyl-2-propyl-1H-imidazo[4,5-c]pyridin-1-yl)butyl]-N-[tert-butyl carbamate]hydroxylamine]
164 to 166	CCCc1nc2c(N)nc(C)c(C)c2n1CCCCN(O)C(C)=O [Example 15, N-[4-(4-Amino-6,7-dimethyl-2-propyl-1-imidazo[4,5-c]pyridin-1-yl)butyl]-N-hydroxyacetamide]
182 to 184	CCCc1nc2c(N)nc3ccccc3c2n1CCCC(C)N(OC)C(=O)NC1CCCC1 (stereo not drawn) [Example 16, 1-[4-(4-Amino-2-propyl-1H-imidazo[4,5-c]quinolin-1-yl)-1-methylbutyl]-N-methoxy-3-cyclopentylurea]
191 to 192	CCCc1nc2c(N)nc3cc(-c4ccccc4)ccc3c2n1CCCC(C)=NOC [Example 17, 5-(4-Amino-7-phenyl-2-propyl-1H-imidazo[4,5-c]quinolin-1-yl)pentan-2-one O-methyloxime]
101 to 103	CCCc1nc2c(N)nc3cc(-c4ccccc4)ccc3c2n1CCCC(C)N(OC)C(=O)NC(C)C (stereo not drawn) [Example 18, 1-[4-(4-Amino-7-phenyl-2-propyl-1H-imidazo[4,5-c]quinolin-1-yl)-1-methylbutyl]-3-isopropyl-1-methoxyurea]

melting point [°C]	SMILES
155 to 156	CCCc1nc2c(N)nc3cccnc3c2n1CCCCN(OC)C(=O)Nc1ccccc1 [Example 19, N-[4-(4-Amino-2-propyl-1H-imidazo[4,5-c][1,5]naphthyridin-1-yl)butyl]-N-methoxy-N′-phenylurea]
180 to 181	CCOCc1nc2c(N)nc3cccnc3c2n1CCCCN(OC)C(C)=O [Example 20, N-[4-(4-amino-2-ethoxymethyl-1H-imidazo[4,5-c][1,5]naphthyridin-1-yl)butyl]-N-Methoxyacetamide]
146 to 147	CCOCc1nc2c(N)nc3cccnc3c2n1CCCCN(OC)C(=O)NC(C)C [Example 21, 1-[4-(4-Amino-2-ethoxymethyl-1H-imidazo[4,5-c][1,5]naphthyridin-1-yl)butyl]-3-isopropyl-1-methoxyurea]
158 to 159	CCCc1nc2c(N)nc3cccnc3c2n1CCCC(C)N(OC)C(C)=O (stereo not drawn) [Example 22, N-Methoxy-N-[4-(4-amino-2-propyl-1H-imidazo[4,5-c][1,5]naphthyridin-1-yl)1-methyl-butyl]acetamide]
138.5 to 140	CCCc1nc2c(N)nc(C)c(C)c2n1CCCCN(O)C(=O)NC(C)C [Example 23, 1-[4-(4-Amino-6,7-dimethyl-2-propyl-1H-imidazo[4,5-c]pyridin-1-yl)butyl]-1-hydroxy-3-isopropylurea]
159 to 160.5	CCCc1nc2c(N)nc(C)c(C)c2n1CCCCN(O)C(=O)Nc1ccccc1 [Example 24, 1-[4-(4-Amino-6,7-dimethyl-2-propyl-1H-imidazo[4,5-c]pyridine-1-yl)butyl]-1-hydroxy-3-phenylurea]
132 to 134	CCCc1nc2c(N)nc(C)c(C)c2n1CCCCN(O)C(=O)c1ccccc1 [Example 25, N-Hydroxy-N-[4-(4-amino-6,7-dimethyl-2-propyl-1H-imidazo[4,5-c]pyridin-1-yl)-butyl]benzamide]
127 to 128	CCCc1nc2c(N)nc(C)c(C)c2n1CCCCN(OC)C(=O)OC(C)(C)C [Example 26, N-[4-(4-Amino-6,7-dimethyl-2-propyl-1H-imidazo[4,5-c]pyridin-1-yl)butyl]-N-[tert-butyl-carbamate]-O-methylhydroxylamine]
136 to 137	CCCc1nc2c(N)nc(C)c(C)c2n1CCCCN(OC)C(=O)c1ccccc1 [Example 27, N-Methoxy-N-[4-(4-amino-6,7-dimethyl-2-propyl-1H-imidazo[4,5-c]pyridin-1-yl)-butyl]benzamide]
242 to 244	CCCCc1nc2c(N)nc3ccccc3c2n1CCCC(=NO)c1ccccc1 [Example 28, 4-(4-Amino-2-butyl-1H-imidazo[4,5-c]quinolin-1-yl)-1-phenylbutan-1-one oxime]
198 to 200	CCCCc1nc2c(N)nc3ccccc3c2n1CCCC(=NOC)c1ccccc1 [Example 29, 4-(4-Amino-2-butyl-1H-imidazo[4,5-c]quinolin-1-yl)-1-phenylbutan-1-one O-methyloximie]
264 to 266	CC(CCCn1c(C)nc2c(N)nc3ccccc3c21)=NO [Example 30, 5-(4-Amino-2-methyl-1H-imidazo[4,5-c]quinolin-1-yl)pentan-2-one oxime]
146 to 148	CC(CCCn1c(C)nc2c(N)nc3ccccc3c21)=NOCc1ccccc1 [Example 31, 5-(4-Amino-2-methyl-1H-imidazo[4,5-c]quinolin-1-yl)pentan-2-one O-benzyloxime]
158 to 161	CON=C(C)CCCn1c(C)nc2c(N)nc3ccccc3c21 [Example 32, 5-(4-Amino-2-methyl-1H-imidazo[4,5-c]quinolin-1-yl)pentan-2-one O-methyloxime]
157 to 159	CCCCc1nc2c(N)nc3ccccc3c2n1CCCC(C)=NOC [Example 33, 5-(4-Amino-2-butyl-1H-imidazo[4,5-c]quinolin-1-yl)pentan-2-one O-methyloxime]
220 to 223	CCOCc1nc2c(N)nc3ccccc3c2n1CCCC(C)=NO [Example 34, 5-(4-Amino-2-ethoxymethyl-1H-imidazo[4,5-c]quinolin-1-yl)pentan-2-one oxime]
207 to 209	CCCc1nc2c(N)nc3ccccc3c2n1CCCC(CC(C)C)=NO [Example 37, 1-(4-Amino-2-propyl-1H-imidazo[4,5-c]quinolin-1-yl)-6-methylheptan-4-one oxime]
113 to 115	CCCCCCC(CCCn1c(CCC)nc2c(N)nc3ccccc3c21)=NO [Example 38, 1-(4-Amino-2-propyl-1H-imidazo[4,5-c]quinolin-1-yl)decan-4-one oxime]
193 to 195	CON=C(C)CC(C)(C)Cn1c(C)nc2c(N)nc3ccccc3c21 [Example 39, 5-(4-Amino-2-methyl-1H-imidazo[4,5-c]quinolin-1-yl)-4,4-dimethylpentan-2-one O-methyl-oxime]
